PMC8022858, “Discovery of bone morphogenetic protein 7-derived peptide sequences that attenuate the human osteoarthritic chondrocyte phenotype” (Molecular Therapy. Methods & Clinical Development, 2021)

Legend:
[1] = test system: primary human OA articular chondrocytes (OA-HACs); test: BMP7 peptide library screening, quantitative real-time PCR of OA chondrocyte phenotype genes; assay type: cell-based; settings: for expression of SOX9, COL2A1, and NKX3-2 mRNA / expression of RUNX2, COL10A1, ALPL, MMP13, ADAMTS5, COX-2, and IL6 mRNA: 24 h, 1, 10, 100 or 1,000 nM peptide, normalized to 28S rRNA; for expression of SOX9, COL2A1, and NKX3-2 mRNA: relative to control (Figure 2A); for expression of RUNX2, COL10A1, ALPL, MMP13, ADAMTS5, COX-2, and IL6 mRNA: relative to control (Figures 2B, 2C); for concentration range of bioactivity / COL10A1 mRNA expression: 24 h; for concentration range of bioactivity: concentration series 1-1,000 nM; for COL10A1 mRNA expression: pool of 18 OA-HACs, 100 nM peptide, versus control (Figure 1B)
Source text: To investigate whether BMP7 harbors potential peptide sequences that improve the OA chondrocyte phenotype, a peptide library was designed from the mature 139 amino acid-long human BMP7 sequence (Table S2). The peptide library was designed as 20-mer peptides with 2 amino acid intervals (18 amino acid overlap) between individual peptides and with all cysteine residues substituted by serine residues to avoid uncontrolled oxidation of cysteine groups. This yielded 61 individual peptides covering the complete mature human BMP7 sequence (Figure 1A). The peptide library was screened using a pool of primary human OA articular chondrocytes (OA-HACs) from 18 individual donors. Prior to pooling, individual OA-HAC isolates were tested for their responsiveness to BMP7 (Figure S1). The screening was conducted by exposing the OA-HAC pool for 24 h to a concentration series (1, 10, 100, or 1,000 nM) of each peptide from the library. […] This is defined as reduced expression of collagen type X alpha 1 chain (COL10A1), alkaline phosphatase (ALPL), Runt-related transcription factor 2 (RUNX2), ADAMTS5, MMP13, prostaglandin-endoperoxide synthase 2 or cyclooxygenase-2 (COX-2), and interleukin 6 (IL6) and increased expression of SRY-box transcription factor 9 (SOX9), COL2A1, and NKX3-2. […] Representative peptides inducing the above gene expression characteristics in OA-HACs were selected from both regions for further investigation. These were peptide p[63−82] and p[113−132] from the library, covering amino acids 63−82 and 113−132 of the mature BMP7 amino acid sequence. The complete quantitative real-time PCR data for peptides p[63−82] and p[113−132] […] For the two candidate peptides, we validated data using an independent cohort of three OA-HACs exposed to 100 nM of p[63−82] or p[113−132] or a combination of both peptides. […] Taken together, two regions in BMP7 were identified delivering peptide sequences that are able to improve the OA chondrocyte phenotype.
Figure 1 BMP7 peptide library screening on primary human OA articular chondrocytes (OA-HACs) (A) Schematic representation of the design of the human BMP7 peptide library. (B) COL10A1 mRNA expression in samples from the library screening on a pool of 18 OA-HACs individually exposed for 24 h to the peptides (100 nM) in the library. Data are shown as compared to the control condition (white bar) and full-length BMP7 (1 nM; gray bar). The two blue bars represent candidate peptides p[63−82] and p[113−132]. […] Error bars represent mean ± SEM, and statistical significance for peptide condition or BMP7 versus control condition as determined by unpaired two-tailed Student’s t test is represented as ∗p < 0.05, ∗∗p < 0.01, and ∗∗∗p < 0.001; NS, not significant.
Figure 2 Bioactivity of BMP7-derived peptides p[63−82] and p[113−132] on OA-HACs Complete peptide library screening quantitative real-time PCR dataset for peptides p[63−82] and p[113−132] is presented. (A) SOX9, COL2A1, and NKX3-2 mRNA expression in the 18 OA-HAC pool exposed to 1,000, 100, 10, or 1 nM of peptide p[63−82] and p[113−132] is shown and presented relative to control (black bars) and alongside full-length BMP7 (white bars). (B) Similar to (A) but for chondrocyte hypertrophy-associated genes RUNX2, COL10A1, and ALPL. (C) Similar to (A) but for cartilage extracellular matrix remodeling-associated genes MMP13 and ADAMTS5 and inflammation-related genes COX-2 and IL-6. (D) Glycosaminoglycan (GAG) content (normalized to total protein content) on an independent cohort of three individual OA-HAC donors treated with 100 nM peptides p[63−82] and p[113−132] for 24 h. (E) Alkaline phosphatase (ALP) activity (normalized to total protein content) in similar samples from (D). (F) Prostaglandin E2 (PGE2) levels in culture supernatant in similar samples from (D). […]

[2] = test system: OA-HACs; test: PGE2 EIA in OA-HAC culture supernatant; assay type: cell-based, human; settings: three individual OA-HAC donors, 100 nM peptide, 24 h (Figure 2F)
Procedure: Figure 2 Bioactivity of BMP7-derived peptides p[63−82] and p[113−132] on OA-HACs Complete peptide library screening quantitative real-time PCR dataset for peptides p[63−82] and p[113−132] is presented. (A) SOX9, COL2A1, and NKX3-2 mRNA expression in the 18 OA-HAC pool exposed to 1,000, 100, 10, or 1 nM of peptide p[63−82] and p[113−132] is shown and presented relative to control (black bars) and alongside full-length BMP7 (white bars). (B) Similar to (A) but for chondrocyte hypertrophy-associated genes RUNX2, COL10A1, and ALPL. (C) Similar to (A) but for cartilage extracellular matrix remodeling-associated genes MMP13 and ADAMTS5 and inflammation-related genes COX-2 and IL-6. […] (G) In the same OA-HAC pool of 18 OA-HAC donors from the peptide library screening, sequence dependency of peptides p[63−82] and p[113−132] was determined by exposing the OA-HAC pool to scrambled versions of peptides p[63−82] and p[113−132] […] Error bars represent mean ± SEM, and statistical significance for peptide conditions or BMP7 versus control condition as determined by unpaired two-tailed Student’s t test is represented as ∗p < 0.05, ∗∗p < 0.01, and ∗∗∗p < 0.001.
PGE2 levels were determined in the culture supernatant. PGE2 concentration was determined by a standardized enzyme immunoassay (EIA) according to the manufacturer’s protocol (Cayman Chemical).

Row | Substance | chondrocyte COX-2, IL-6, and PGE2 levels ([1]; full-length BMP7 1 nM, OA-HACs) | prostaglandin E2 (PGE2) levels in culture supernatant [2] | expression of SOX9, COL2A1, and NKX3-2 mRNA ([1]; pool of 18 OA-HAC donors) | expression of RUNX2, COL10A1, ALPL, MMP13, ADAMTS5, COX-2, and IL6 mRNA ([1]; pool of 18 OA-HAC donors) | concentration range of bioactivity ([1]; pool of 18 OA-HAC donors) | COL10A1 mRNA expression [1] | sequence specificity: expression of COL2A1, RUNX2, COL10A1, and COX-2 ([1]; pool of 18 OA-HAC donors, scrambled peptides 100 nM, 24 h (Figure 2G))
1 | BMP7: full-length recombinant bone morphogenetic protein 7 (R&D Systems), used at 1 nM | attenuation | – | – | – | – | – | –
2 | H-AAYYSEGESAFPLNSYMNAT-OH [p[63−82]] | – | significant decrease | induced | inhibited | low nanomolar range | significantly downregulated | –
3 | H-SEASPAMYYLNATANFYESG-OH [scrambled p[63−82], scrambled version of peptide p[63−82], reference compound] | – | – | – | – | – | – | neither one of them was able to recapitulate the bioactivity
4 | H-SVLYFDDSSNVILKKYRNMV-OH [p[113−132]] | – | significant decrease | induced | inhibited | low nanomolar range | significantly downregulated | –
